Reference: patent US10336759B2, “Salts and processes of preparing a PI3K inhibitor” (Incyte Corporation, priority 2015, dated 2019)

Key:
[1] = target: JAK1 (Homo sapiens (Human), UniProt P23458); assay: Assay A, JAK1 IC50 at 1 mM ATP; assay type: biochemical; details: method of Assay A at 1 mM ATP; #3 data for enantiomer 1, #14 data for enantiomer 2
[2] = target: JAK2 (Homo sapiens (Human), UniProt O60674); assay: Assay A, JAK2 versus JAK1 (ratio); assay type: biochemical; details: ratio of IC50s, Assay A at 1 mM ATP
JAK2, sequence (O60674 whole entry, species assumed): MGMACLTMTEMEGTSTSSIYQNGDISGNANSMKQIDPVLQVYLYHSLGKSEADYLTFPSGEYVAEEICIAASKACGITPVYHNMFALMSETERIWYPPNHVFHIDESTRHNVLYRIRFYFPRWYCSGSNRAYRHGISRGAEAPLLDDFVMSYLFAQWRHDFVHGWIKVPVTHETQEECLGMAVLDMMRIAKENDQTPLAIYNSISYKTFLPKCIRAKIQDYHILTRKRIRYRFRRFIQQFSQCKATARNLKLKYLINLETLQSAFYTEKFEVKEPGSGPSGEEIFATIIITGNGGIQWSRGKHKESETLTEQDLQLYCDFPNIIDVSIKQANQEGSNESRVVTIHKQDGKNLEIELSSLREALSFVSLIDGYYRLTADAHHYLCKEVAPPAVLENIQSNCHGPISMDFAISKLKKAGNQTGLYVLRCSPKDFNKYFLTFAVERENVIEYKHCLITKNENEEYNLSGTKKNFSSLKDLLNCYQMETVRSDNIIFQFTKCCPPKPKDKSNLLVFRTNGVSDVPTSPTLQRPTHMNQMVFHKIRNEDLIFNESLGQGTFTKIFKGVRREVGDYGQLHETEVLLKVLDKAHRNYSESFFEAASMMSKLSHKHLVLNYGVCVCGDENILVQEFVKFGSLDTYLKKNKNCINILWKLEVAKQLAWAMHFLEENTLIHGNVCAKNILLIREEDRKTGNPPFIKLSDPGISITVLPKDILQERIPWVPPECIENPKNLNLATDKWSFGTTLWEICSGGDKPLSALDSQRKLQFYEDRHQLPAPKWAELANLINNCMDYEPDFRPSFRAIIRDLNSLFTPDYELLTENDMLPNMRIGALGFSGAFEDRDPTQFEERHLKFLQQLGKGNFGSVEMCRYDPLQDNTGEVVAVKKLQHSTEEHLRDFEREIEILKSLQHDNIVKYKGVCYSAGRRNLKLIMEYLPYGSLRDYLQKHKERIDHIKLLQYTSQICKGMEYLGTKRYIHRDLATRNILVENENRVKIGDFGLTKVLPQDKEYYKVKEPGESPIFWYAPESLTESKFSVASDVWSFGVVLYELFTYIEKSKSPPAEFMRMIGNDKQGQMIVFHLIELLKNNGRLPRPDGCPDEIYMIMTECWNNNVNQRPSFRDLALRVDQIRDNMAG

JAK1, sequence (P23458 whole entry, species assumed): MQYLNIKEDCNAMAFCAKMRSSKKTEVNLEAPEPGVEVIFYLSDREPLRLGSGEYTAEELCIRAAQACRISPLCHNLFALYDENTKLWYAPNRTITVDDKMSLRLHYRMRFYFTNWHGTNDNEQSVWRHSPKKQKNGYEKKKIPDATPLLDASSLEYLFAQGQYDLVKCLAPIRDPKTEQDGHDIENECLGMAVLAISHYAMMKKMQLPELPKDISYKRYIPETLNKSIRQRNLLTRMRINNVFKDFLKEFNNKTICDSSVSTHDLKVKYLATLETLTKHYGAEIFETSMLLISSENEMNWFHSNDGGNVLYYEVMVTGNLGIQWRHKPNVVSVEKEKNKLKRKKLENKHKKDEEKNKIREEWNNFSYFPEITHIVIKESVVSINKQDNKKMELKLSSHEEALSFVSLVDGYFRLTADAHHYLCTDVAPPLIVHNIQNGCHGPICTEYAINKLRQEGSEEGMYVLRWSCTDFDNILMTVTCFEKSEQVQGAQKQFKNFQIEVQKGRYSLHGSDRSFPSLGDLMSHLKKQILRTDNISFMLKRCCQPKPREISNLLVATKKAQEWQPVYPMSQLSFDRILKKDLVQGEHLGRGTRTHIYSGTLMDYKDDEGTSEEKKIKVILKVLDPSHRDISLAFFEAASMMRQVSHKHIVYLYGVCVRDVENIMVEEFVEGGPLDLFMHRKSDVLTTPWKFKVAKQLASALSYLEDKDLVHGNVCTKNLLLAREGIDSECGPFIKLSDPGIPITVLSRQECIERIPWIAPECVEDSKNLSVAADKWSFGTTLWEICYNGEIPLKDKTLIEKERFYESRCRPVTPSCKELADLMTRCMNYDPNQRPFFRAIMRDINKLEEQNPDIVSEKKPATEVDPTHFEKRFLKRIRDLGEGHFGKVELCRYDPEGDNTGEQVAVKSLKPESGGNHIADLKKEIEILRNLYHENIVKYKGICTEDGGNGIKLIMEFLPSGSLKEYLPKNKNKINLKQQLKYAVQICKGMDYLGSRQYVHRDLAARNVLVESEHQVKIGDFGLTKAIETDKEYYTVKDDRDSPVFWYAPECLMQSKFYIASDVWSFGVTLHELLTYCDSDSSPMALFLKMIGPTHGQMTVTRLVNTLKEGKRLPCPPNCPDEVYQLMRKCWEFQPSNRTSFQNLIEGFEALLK

SMILES | IC50 [1] | JAK2/JAK1 [2]
N#CCC(C1CCN(c2cccc(Cl)n2)C1)n1cc(-c2ncnc3[nH]ccc23)cn1 (single isomer, unassigned) [Example 3, 3-[1-(6-chloropyridin-2-yl)pyrrolidin-3-yl]-3-[4-(7H-pyrrolo[2,3-d]pyrimidin-4-yl)-1H-pyrazol-1-yl]propanenitrile] | < 10 nM | >10
C[C@@H](O)c1nc2cnc3ccsc3c2n1[C@H]1CC[C@H](CC#N)OC1 [Example 1, ((2R,5S)-5-{2-[(1R)-1-hydroxyethyl]-1H-imidazo[4,5-d]thieno[3,2-b]pyridin-1-yl}tetrahydro-2H-pyran-2-yl)acetonitrile] |  | >10
N#CCC(C1CCN(c2nc3cccnc3o2)C1)n1cc(-c2ncnc3[nH]ccc23)cn1 (stereo not shown) [Example 4, 3-(1-[1,3]oxazolo[5,4-b]pyridin-2-ylpyrrolidin-3-yl)-3-[4-(7H-pyrrolo[2,3-. d]pyrimidin-4-yl)-1H-pyrazol-1-yl]propanenitrile] | < 10 nM | >10
N#CCC(CN1CCN(C(=O)c2ccc(C#N)cc2F)CC1)n1cc(-c2ncnc3[nH]ccc23)cn1 (stereo not shown) [Example 5, 4-[(4-{3-cyano-2-[4-(7H-pyrrolo[2,3-d]pyrimidin-4-yl)-1H-pyrazol-1-yl)propyl}piperazin-1-yl)carbonyl]-3-fluorobenzonitrile] | < 10 nM | >10
N#CCC(CN1CCN(C(=O)c2ccc(C#N)cc2F)CC1)n1ccc(-c2ncnc3[nH]ccc23)c1 (stereo not shown) [Example 6, 4-[(4-{3-cyano-2-[3-(7H-pyrrolo[2,3-d]pyrimidin-4-yl)-1H-pyrrol-1-yl]propyl}piperazin-1-yl)carbonyl]-3-fluorobenzonitrile] | < 10 nM | >10
N#CCC1(n2cc(-c3ncnc4[nH]ccc34)cn2)CN(C2CCN(C(=O)c3ccnc(C(F)(F)F)c3F)CC2)C1 [Example 7, {1-{1-[3-Fluoro-2-(trifluoromethyl)isonicotinoyl]piperidin-4-yl}-3-[4-(7H-pyrrolo[2,3-d]pyrimidin-4-yl)-1H-pyrazol-1-yl]azetidin-3-yl}acetonitrile] | < 10 nM | >10
N#CCC1(n2cc(-c3ncnc4[nH]ccc34)cn2)CN(C2CCN(C(=O)Nc3ccc(F)cc3C(F)(F)F)CC2)C1 [Example 8, 4-{3-(Cyanomethyl)-3-[4-(7H-pyrrolo[2,3-d]pyrimidin-4-yl)-1H-pyrazol-1-yl]azetidin-1-yl}-N-[4-fluoro-2-(trifluoromethyl)phenyl] piperidine-1-carboxamide] | < 10 nM | >10
N#CCC1(n2cc(-c3ncnc4[nH]ccc34)cn2)CN(C2CCN(C(=O)c3ccnc(C(F)(F)F)n3)CC2)C1 [Example 9, [3-[4-(7H-pyrrolo[2,3-d]pyrimidin-4-yl)-1H-pyrazol-1-yl]-1-(1-{[2,- (trifluoromethyl)pyrimidin-4-yl]carbonyl}piperidin-4-yl)azetidin-3-yl]acetonitrile] | < 10 nM | >10
N#CC[C@]1(n2cc(-c3ncnc4[nH]ccc34)cn2)C[C@H](N2CCN(C(=O)c3ccnc(C(F)(F)F)n3)CC2)C1 [Example 10, [trans-1-[4-(7H-pyrrolo[2,3-d]pyrimidin-4-yl)-1H-pyrazol-1-yl]-3-(4-{[2-(trifluoromethyl)pyrimidin-4-yl]carbonyl}piperazin-1-yl)cyclobutyl]acetonitrile] | < 10 nM | >10
N#CC[C@]1(n2cc(-c3ncnc4[nH]ccc34)cn2)C[C@H](N2CCC(Oc3cc(CN4CC(O)C4)cc(C(F)(F)F)n3)CC2)C1 [Example 11, {trans-3-(4-{[4-[(3-hydroxyazetidin-1-yl)methyl]-6-(trifluoromethyl)pyridin-2-yl]oxy}piperidin-1-yl)-1-[4-(7H-pyrrolo[2,3-d]pyrimidin-4-yl)-1H-pyrazol-1-yl]cyclobutyl}acetonitrile] | < 10 nM | >10
N#CC[C@]1(n2cc(-c3ncnc4[nH]ccc34)cn2)C[C@H](N2CCC(Oc3cc(CN4CCC[C@H]4CO)cc(C(F)(F)F)n3)CC2)C1 [Example 12] | < 10 nM | >10
N#CC[C@]1(n2cc(-c3ncnc4[nH]ccc34)cn2)C[C@H](N2CCC(Oc3cc(CN4CCC[C@@H]4CO)cc(C(F)(F)F)n3)CC2)C1 [Example 13, {trans-3-(4-{[4-{[(2R)-2-(hydroxymethyl)pyrrolidin-1-yl]methyl}-6-(trifluoromethyl)pyridin-2-yl]oxy}piperidin-1-yl)-1-[4-(7H-pyrrolo[2,3-d]pyrimidin-4-yl)-1H-pyrazol-1-yl]cyclobutyl}acetonitrile] | < 10 nM | >10
C[C@H](NC(=O)c1cc(F)c(N2CC(CC#N)(n3cc(-c4ncnc5[nH]ccc45)cn3)C2)cc1F)C(F)(F)F [Example 16, 4-{3-(cyanomethyl)-3-[4-(7H-pyrrolo[2,3-d]pyrimidin-4-yl)-1H-pyrazol-1-yl]azetidin-1-yl}-2,5-difluoro-N-[(1S)-2,2,2-trifluoro-1-methylethyl]benzamide] | < 10 nM | >10
N#CCC1(n2cc(-c3ncnc4[nH]ccc34)cn2)CN([C@H]2CC[C@@H](Oc3cc(CCO)nc(C(F)(F)F)n3)CC2)C1 [Example 18, {1-(cis-4-{[6-(2-hydroxyethyl)-2-(trifluoromethyl)pyrimidin-4-yl]oxy}cyclohexyl)-3-[4-(7H-pyrrolo[2,3-d]pyrimidin-4-yl)-1H-pyrazol-1-yl]azetidin-3-yl}acetonitrile] | < 10 nM | >10
CCNCc1cc(O[C@H]2CC[C@@H](N3CC(CC#N)(n4cc(-c5ncnc6[nH]ccc56)cn4)C3)CC2)nc(C(F)(F)F)c1 [Example 19, {1-(cis-4-{[4-[(ethylamino)methyl]-6-(trifluoromethyl)pyridin-2-yl]oxy}cyclohexyl)-3-[4-(7H-pyrrolo[2,3-d]pyrimidin-4-yl)-1H-pyrazol-1-yl]lazetidin-3-yl}acetonitrile] | < 10 nM | >10
CC(C)(O)c1cc(O[C@H]2CC[C@@H](N3CC(CC#N)(n4cc(-c5ncnc6[nH]ccc56)cn4)C3)CC2)nc(C(F)(F)F)c1 [Example 20, {1-(cis-4-{[4-(1-hydroxy-1-methylethyl)-6-(trifluoromethyl)pyridin-2-yl]oxy}cyclohexyl)-3-[4-(7H-pyrrolo[2,3-d]pyrimidin-4-yl)-1H-pyrazol-1-yl]azetidin-3-yl}acetonitrile] | < 10 nM | >10
N#CCC1(n2cc(-c3ncnc4[nH]ccc34)cn2)CN([C@H]2CC[C@@H](Oc3cc(CN4CC[C@@H](O)C4)cc(C(F)(F)F)n3)CC2)C1 [Example 21] | < 10 nM | >10
N#CCC1(n2cc(-c3ncnc4[nH]ccc34)cn2)CN([C@H]2CC[C@@H](Oc3cc(CN4CC[C@H](O)C4)cc(C(F)(F)F)n3)CC2)C1 [Example 22, {1-(cis-4-{[4-{[(3S)-3-hydroxypyrrolidin-1-yl]methyl}-6-(trifluoromethyl)pyridin-2-yl]oxy}cyclohexyl)-3-[4-(7H-pyrrolo[2,3-d]pyrimidin-4-yl)-1H-pyrazol-1-yl]azetidin-3-yl}acetonitrile] | < 10 nM | >10
C[C@@H](CO)NCc1cc(OC2CCN([C@H]3C[C@](CC#N)(n4cc(-c5ncnc6[nH]ccc56)cn4)C3)CC2)nc(C(F)(F)F)c1 [Example 23, {trans-3-(4-{[4-({[(1S)-2-hydroxy-1-methylethyl]amino}methyl)-6-(trifluoromethyl)pyridin-2-yl]oxy}piperidin-1-yl)-1-[4-(7H-pyrrolo[2,3-d]pyrimidin-4-yl)-1H-pyrazol-1-yl]cyclobutyl}acetonitrile] | < 10 nM | >10
C[C@@H](O)CNCc1cc(OC2CCN([C@H]3C[C@](CC#N)(n4cc(-c5ncnc6[nH]ccc56)cn4)C3)CC2)nc(C(F)(F)F)c1 [Example 24, {trans-3-(4-{[4-({[(2R)-2-hydroxypropyl]amino}methyl)-6-(trifluoromethyl)pyridin-2-yl]oxy}piperidin-1-yl)-1-[4-(7H-pyrrolo[2,3-d]pyrimidin-4-yl)-1H-pyrazol-1-yl]cyclobutyl}acetonitrile] | < 10 nM | >10
C[C@H](O)CNCc1cc(OC2CCN([C@H]3C[C@](CC#N)(n4cc(-c5ncnc6[nH]ccc56)cn4)C3)CC2)nc(C(F)(F)F)c1 [Example 25, {trans-3-(4-{[4-({[(2S)-2-hydroxypropyl]amino}methyl)-6-(trifluoromethyl)pyridin-2-yl]oxy}piperidin-1-yl)-1-[4-(7H-pyrrolo[2,3-d]pyrimidin-4-yl)-1H-pyrazol-1-yl]cyclobutyl}acetonitrile] | < 10 nM | >10
N#CC[C@]1(n2cc(-c3ncnc4[nH]ccc34)cn2)C[C@H](N2CCC(Oc3cc(CCO)cc(C(F)(F)F)n3)CC2)C1 [Example 26, {trans-3-(4-{[4-(2-hydroxyethyl)-6-(trifluoromethyl)pyridin-2-yl]oxy}piperidin-1-yl)-1-[4-(7H-pyrrolo[2,3-d]pyrimidin-4-yl)-1H-pyrazol-1-yl]cyclobutyl}acetonitrile] | < 10 nM | >10
